Test results taken from patent US5210193A, “Piperazine derivatives” (American Cyanamid Company, priority 1990, dated 1993).
In brackets after ≈: the same amount, converted by molar mass.

How the values were obtained:
[1] = tested on: Escherichia coli ATCC 25922; assay: in vitro antibacterial MIC, agar plate dilution; format: cell-based; details: Escherichia coli, ATCC25922, 18 h, 35° C., read-out: MIC
Method: (§1) The in vitro antimicrobial spectrum of the compounds of ths invention were determined by the agar plate dilution method with Mueller-Hinton agar and an inoculum of each test organism of approximately 10^4 colony forming units delivered by the Steers replicating device. The minimal inhibitory concentration (MIC) in mcg/ml is defined as the lowest concentration of test compound that inhibited visible growth after 18 hours incubation at 35° C. Results are given in Table I, with the test compounds identified by the number of their hereinafter described examples.

[2] = tested on: Pseudomonas aeruginosa LL-1244; assay: in vitro antibacterial MIC, agar plate dilution; format: cell-based; details: Pseudomonas aeruginosa, LL1244, 18 h, 35° C., read-out: MIC
Method: as §1

[3] = tested on: Staphylococcus aureus ATTC 29213; assay: in vitro antibacterial MIC, agar plate dilution; format: cell-based; details: Staphylococcus aureus, ATTC29213, 18 h, 35° C., read-out: MIC
Method: as §1

[4] = tested on: Pseudomonas aeruginosa VGH 84-4; assay: in vitro antibacterial MIC, agar plate dilution; format: cell-based; details: Pseudomonas aeruginosa, VGH844, 18 h, 35° C., read-out: MIC
Method: as §1

[5] = tested on: Serratia marcescens VGH 84-30; assay: in vitro antibacterial MIC, agar plate dilution; format: cell-based; details: Serratia marcescens, VGH8430, 18 h, 35° C., read-out: MIC
Method: as §1

[6] = tested on: Streptococcus faecalis UCI 85-19; assay: in vitro antibacterial MIC, agar plate dilution; format: cell-based; details: Enterococcus faecalis, UCI8519, 18 h, 35° C., read-out: MIC
Method: as §1

[7] = tested on: Staphylococcus aureus Smith; assay: in vitro antibacterial MIC, agar plate dilution; format: cell-based; details: Staphylococcus aureus, 18 h, 35° C., read-out: MIC
Method: as §1

[8] = tested on: Escherichia coli CMC 84-11; assay: in vitro antibacterial MIC, agar plate dilution; format: cell-based; details: Escherichia coli, CMC8411, 18 h, 35° C., read-out: MIC
Method: as §1

[9] = tested on: Streptococcus faecalis VGH 84-65; assay: in vitro antibacterial MIC, agar plate dilution; format: cell-based; details: Enterococcus faecalis, VGH8465, 18 h, 35° C., read-out: MIC
Method: as §1

[10] = tested on: Proteus rettgeri CMC 84-41; assay: in vitro antibacterial MIC, agar plate dilution; format: cell-based; details: Providencia rettgeri, CMC8441, 18 h, 35° C., read-out: MIC
Method: as §1

[11] = tested on: Morganella morganii CMC 84-37; assay: in vitro antibacterial MIC, agar plate dilution; format: cell-based; details: Morganella morganii, CMC8437, 18 h, 35° C., read-out: MIC
Method: as §1

[12] = tested on: Serratia marcescens K 84-18; assay: in vitro antibacterial MIC, agar plate dilution; format: cell-based; details: Serratia marcescens, K8418, 18 h, 35° C., read-out: MIC
Method: as §1

[13] = tested on: Staphylococcus aureus VGH 84-45; assay: in vitro antibacterial MIC, agar plate dilution; format: cell-based; details: Staphylococcus aureus, VGH8445, 18 h, 35° C., read-out: MIC
Method: as §1

[14] = tested on: Escherichia coli LL 311; assay: in vitro antibacterial MIC, agar plate dilution; format: cell-based; details: Escherichia coli, LL311, 18 h, 35° C., read-out: MIC
Method: as §1

[15] = tested on: Klebsiella pneumoniae AD; assay: in vivo antibacterial activity, survival of infected mice (Table II); design: species or system Charles River CD-1 mice; details: subcutaneous
Method: Charles River CD-1 mice were infected with either Klebsiella pneumoniae AD or Staphylococcus aureus Smith. A single subcutaneous dose of the test compound was administered 1/2 hour after infection. […] The results appear in Tables II and III, wherein the representative test compounds are identified by the number of their hereinafter described examples.

[16] = tested on: Morganella morganii VGH 84-11; assay: in vitro antibacterial MIC, agar plate dilution; format: cell-based; details: VGH8411, 18 hours, 35° C., read-out: MIC
Method: as §1

[17] = tested on: Enterobacter aerogenes VGH 84-36; assay: in vitro antibacterial MIC, agar plate dilution; format: cell-based; details: Klebsiella aerogenes, VGH8436, 18 hours, 35° C., read-out: MIC
Method: as §1

[18] = tested on: Staphylococcus aureus ATCC 25913; assay: in vitro antibacterial MIC, agar plate dilution; format: cell-based; details: ATCC25913, 18 hours, 35° C.
Method: as §1

[19] = tested on: Enterobacter cloacae VGH 84-37; assay: in vitro antibacterial MIC, agar plate dilution; format: cell-based; details: Enterobacter cloacae, VGH8437, 18 h, 35° C., read-out: MIC
Method: as §1

[20] = tested on: Klebsiella pneumoniae AD; assay: in vitro antibacterial MIC, agar plate dilution; format: cell-based; details: Klebsiella pneumoniae, 18 h, 35° C., read-out: MIC
Method: as §1

[21] = tested on: Klebsiella pneumoniae MOR 84-4; assay: in vitro antibacterial MIC, agar plate dilution; format: cell-based; details: Klebsiella pneumoniae, MOR844, 18 h, 35° C., read-out: MIC
Method: as §1

[22] = tested on: Streptococcus faecalis ATTC 29212; assay: in vitro antibacterial MIC, agar plate dilution; format: cell-based; details: Enterococcus faecalis, ATTC29212, 18 hours, 35° C., read-out: MIC
Method: as §1

Row | SMILES | MIC [1] [µg/mL] | MIC [4] [µg/mL] | MIC [7] [µg/mL] | MIC [8] [µg/mL] | MIC [10] [µg/mL] | MIC [16] [µg/mL] | MIC [17] [µg/mL] | MIC [18] [µg/mL] | MIC [19] [µg/mL] | MIC [20] [µg/mL] | MIC [21] [µg/mL] | MIC [22] [µg/mL] | further results
1 | O=C(O)c1cn(C2CC2)c2cc(N3CCNC(COc4ccccc4)C3)c(F)cc2c1=O (centres unmarked) [Example 83, 1-Cyclopropyl-6-fluoro-1,4-dihydro-4-oxo-7-[3-(phenoxymethyl)-1-piperazinyl]-3-quinolinecarboxylic acid] | 0.12 (≈ 0.274 µM) | 4 (≈ 9.14 µM) | 0.06 (≈ 0.137 µM) | 0.06 (≈ 0.137 µM) | 0.25 (≈ 0.571 µM) |  |  |  |  |  |  |  | MIC [2]: 32 µg/mL (≈ 73.1 µM); MIC [3]: 0.25 µg/mL (≈ 0.571 µM); MIC [5]: 4 µg/mL (≈ 9.14 µM); MIC [6]: 2 µg/mL (≈ 4.57 µM); MIC [9]: 2 µg/mL (≈ 4.57 µM); MIC [11]: 0.12 µg/mL (≈ 0.274 µM); MIC [12]: 0.5 µg/mL (≈ 1.14 µM); MIC [13]: 0.03 µg/mL (≈ 0.0686 µM); MIC [14]: 0.12 µg/mL (≈ 0.274 µM)
2 | CCn1cc(C(=O)O)c(=O)c2cc(F)c(N3CCNC(c4sccc4C)C3)cc21 (centres unmarked) [Example 16, 1-Ethyl-6-fluoro-1,4-dihydro-7-[3-(3-methyl-2-thienyl)-1-piperazinyl]-4-oxo-3-quinolinecarboxylic acid] | 8 (≈ 19.3 µM) | > 256 | 0.5 (≈ 1.2 µM) | 4 (≈ 9.63 µM) | 8 (≈ 19.3 µM) | 4 (≈ 9.63 µM) | 8 (≈ 19.3 µM) | 1 (≈ 2.41 µM) | 8 (≈ 19.3 µM) | 4 (≈ 9.63 µM) | 8 (≈ 19.3 µM) |  | Survival Ratio 7 Days After Infection ([15]; 0.25 mg/kg single dose): 0/5; Survival Ratio 7 Days After Infection ([15]; 1 mg/kg single dose): 0/5; Survival Ratio 7 Days After Infection ([15]; 4 mg/kg single dose): 1/5; Survival Ratio 7 Days After Infection ([15]; 16 mg/kg single dose): 1/5
3 | CCn1cc(C(=O)O)c(=O)c2cc(F)c(N3CCN(C)C(CF)C3)cc21 (centres unmarked) [Example 25, 1-Ethyl-6-fluoro-7-[3-(fluoromethyl)-4-methyl-1-piperazinyl]-1,4-dihydro-4-oxo-3-quinolinecarboxylic acid] | 0.25 (≈ 0.684 µM) | 2 (≈ 5.47 µM) | 0.5 (≈ 1.37 µM) | 0.5 (≈ 1.37 µM) | 1 (≈ 2.74 µM) | 1 (≈ 2.74 µM) | 2 (≈ 5.47 µM) | 0.5 (≈ 1.37 µM) | 1 (≈ 2.74 µM) | 0.5 (≈ 1.37 µM) | 1 (≈ 2.74 µM) | 8 (≈ 21.9 µM) | 
4 | CCn1cc(C(=O)O)c(=O)c2cc(F)c(N3CCNC(c4cc5ccccc5o4)C3)cc21 (centres unmarked) [Example 46, 7-[3-(2-Benzofuranyl)-1-piperazinyl]-1-ethyl-6-fluoro-1,4-dihydro-4-oxo-3-quinolinecarboxylic acid] | 0.25 (≈ 0.574 µM) | 8 (≈ 18.4 µM) | ≤ 0.12 | 0.25 (≈ 0.574 µM) | 0.5 (≈ 1.15 µM) | 0.5 (≈ 1.15 µM) | 1 (≈ 2.3 µM) | ≤ 0.12 | 0.5 (≈ 1.15 µM) | 0.5 (≈ 1.15 µM) | 1 (≈ 2.3 µM) | 1 (≈ 2.3 µM) | 

Continued by falling MIC [1], values first:

Row | MIC [1] [µg/mL] | MIC [4] [µg/mL] | MIC [7] [µg/mL] | MIC [8] [µg/mL] | MIC [10] [µg/mL] | MIC [16] [µg/mL] | MIC [17] [µg/mL] | MIC [18] [µg/mL] | MIC [19] [µg/mL] | MIC [20] [µg/mL] | MIC [21] [µg/mL] | MIC [22] [µg/mL] | SMILES | further results
5 | 32 (≈ 59.4 µM) | > 256 | 0.5 (≈ 0.928 µM) | 64 (≈ 119 µM) | 256 (≈ 475 µM) | 256 (≈ 475 µM) | 256 (≈ 475 µM) | 1 (≈ 1.86 µM) | 256 (≈ 475 µM) | 64 (≈ 119 µM) | 256 (≈ 475 µM) | 64 (≈ 119 µM) | CCn1cc(C(=O)O)c(=O)c2cc(F)c(N3CCN(C)C(c4ccn(S(=O)(=O)c5ccccc5)c4)C3)cc21 (centres unmarked) [Example 49] | 
6 | 2 (≈ 3.81 µM) | > 256 | 0.25 (≈ 0.477 µM) | 4 (≈ 7.63 µM) | 4 (≈ 7.63 µM) | 4 (≈ 7.63 µM) | 16 (≈ 30.5 µM) | 0.5 (≈ 0.953 µM) | 4 (≈ 7.63 µM) | 4 (≈ 7.63 µM) | 8 (≈ 15.3 µM) | 4 (≈ 7.63 µM) | CCn1cc(C(=O)O)c(=O)c2cc(F)c(N3CCNC(c4ccn(S(=O)(=O)c5ccccc5)c4)C3)cc21 (centres unmarked) [Example 44, 1-Ethyl-6-fluoro-1,4-dihydro-4-oxo-7-[3-[1-(phenylsulfonyl)-1H-pyrrol-3-yl]-1-piperazinyl]-3-quinolinecarboxylic acid] | 
